Source: patent US20230094176A1, “COMPOUNDS AND METHODS FOR IMPROVING IMPAIRED ENDOGENOUS FIBRINOLYSIS USING HISTONE DEACETYLASE INHIBITORS” (Cereno Scientific AB, priority 2011, published 2023)
Where two headings read alike, the source gives them in different places.

How the values were obtained:
E-selectin = assay: Regulation of E-selectin expression in endothelial cells; format: cell-based; conditions: endothelial cell gene expression
[1] = cited from earlier work
[2] = system: TNF-a suppressed t-PA mRNA in HUVECs; assay: TNF-alpha suppression of t-PA mRNA in HUVEC: anti-inflammatory substances versus Givinostat; format: cell-based, human
Procedure: HUVECs were treated with TNF-alpha (TNF-a) for 1 h and then optimal concentrations of the anti.inflammatory substances acetylsalicylic acid (ASA, 1 mM) and ibuprofen (IBU, 1 mM) was added. Givinostat was also added to the cells for comparison. Cells were harvested and t-PA mRNA levels analysed according to example 1.

[3] = system: t-PA mRNA in endothelial cells; assay: VPA dose-response on t-PA in the absence or presence of high TNF-alpha (10 ng/ml); format: cell-based, human
Procedure: In an attempt to mimic the potentially highly inflamed conditions in the local microenvironment surrounding an atherosclerotic plaque, endothelial cells were exposed to a high concentration (10 ng/ml) of TNF-alpha for 24 hours and then VPA was added for an additional 24 h. Cells were treated and mRNA prepared as described in example 1.

patients with epilepsy = conditions: cited from earlier work
[4] = maximum plasma concentration when the MTD is administered to humans

Structure (SMILES) | regulation of E-selectin expression (E-selectin) | Cmax [1, 4] | Cmax (ng/ml) [1, 4] | MTD ([1]; humans, literature) | Cmax (ng/ml) ([1]; in vivo) | other results
O=C(/C=C/c1cccc(S(=O)(=O)Nc2ccccc2)c1)NO [Belinostat] | almost no effect | 4000 nM | ~1400 ng/mL |  |  | MTD ([1]; bidaily, oncology treatment or trials): 1000 mg bidaily
CCN(CC)Cc1ccc2cc(COC(=O)Nc3ccc(C(=O)NO)cc3)ccc2c1.Cl [Givinostat] | strongly suppresses expression | 650 nM | 300 ng/mL | 200 mg |  | increase of t-PA ([2]; HUVEC treated with TNF-a): 9 fold; effect on TNF-a mediated suppression of t-PA expression ([2]; HUVEC, TNF-a 1 h then substance, ASA 1 mM, IBU 1 mM): completely reverse; MTD ([1]; once daily, in healthy volunteers): 200 mg once daily
Nc1ccccc1NC(=O)c1ccc(CNc2nccc(-c3cccnc3)n2)cc1 [Mocetinostat] | strongly induces expression |  |  |  | 200 ng/mL | Cmax ([1]; in vivo): 500 nM
CCCC(CCC)C(=O)O [VPA, valproic acid] | almost no effect |  |  |  |  | maximum efficacy in inducing t-PA ([3]; TNF-alpha (10 ng/ml) treated cells): about 50 fold; maximum efficacy in inducing t-PA ([3]; control cells (no TNF-alpha)): about 10 fold; lowering of the risk of atherothrombotic events (patients with epilepsy; patients with epilepsy (Olesen et al 2010)): up to 40%; plasma levels typically obtained during anticonvulsive treatment (patients with epilepsy; patients, anticonvulsive VPA treatment): 350000 to 850000 nM
O=C(CCCCCCC(=O)Nc1ccccc1)NO [Vorinostat] |  | 1100 nM |  | 200 mg b.i.d | 300 ng/mL | MTD ([1]; once daily, oncology treatment or trials): 400 mg once daily
